Tests used:
[1] = tested on: B16F10 cells; test: Cell proliferation assay (alamarBlue), B16F10; assay type: cell-based; conditions: Mus musculus, B16-F10; B16F10 (melanoma, BRAF wild-type), 96 hours
How it was run: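 B16F10 cells in DMEM with 10% FCS were exposed to seven concentrations from 1E-5 to 1E-8 M for 96 hours at 37 °C. Viability was read with alamarBlue (ex 530/em 590 nm), and day-0 signal was subtracted. IC50 was derived relative to buffer-treated cells.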

[2] = target: T1, BRD4 bromo domain 1 [BRD4(1)] (Homo sapiens, UniProt O60885); test: BRD4/acetylated peptide H4 binding assay (TR-FRET), BRD4 bromo domain 1; conditions: inhibition of BRD4(1)/Ac-H4 peptide interaction
T1 construct: N-terminally His6-tagged BRD4(1) (amino acids 67-152); made in house; host or cells: E. coli
How it was run: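 TR-FRET (665/620 nm ratio) measuring displacement of biotinylated tetra-acetylated H4 peptide from His6-BRD4(1) (aa 67-152, E. coli; typically 10 nM) at pH 7.5. Compound (11 concentrations, 0.1 nM–20 μM, duplicates) was preincubated 10 min at 22°C, then 1 h at 22°C and ≥3 h at 4°C; IC50 from 4-parameter fit normalized to DMSO and no-BRD4 controls.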

[3] = tested on: CHL-1 cells; test: Cell proliferation assay (alamarBlue), CHL-1; assay type: cell-based; conditions: Homo sapiens; CHL-1 (melanoma, BRAF wild-type), 96 hours
Experimental: In accordance with the invention, the ability of the substances to inhibit cell proliferation was determined. Cell viability was determined by means of the alamarBlue® reagent (Invitrogen) in a Victor X3 Multilabel Reader (Perkin Elmer). The excitation wavelength was 530 nm and the emission wavelength […].
The CHL-1 cells (ATCC, CRL-9446) were sown at a concentration of 1000 cells/well in 100 μl of growth medium (DMEM with glutamine, 10% FCS) on 96-well microtitre plates.
After overnight incubation at 37° C., the fluorescence values were determined (CI values). Then the plates were treated with various substance dilutions (1E-5 M, 3E-6 M, 1E-6 M, 3E-7 M, 1E-7 M, 3E-8 M, 1E-8 M) and incubated at 37° C. over 96 hours (MOLM-13, B16F10, CHL-1 cells) or 120 hours (MOLP-8 cells). Subsequently, the fluorescence values were determined (CO values). For the data analysis, the CI values were subtracted from the CO values and the results were compared between cells which had been treated with various dilutions of the substance or only with buffer solution. The IC50 values (substance concentration needed for 50% inhibition of cell proliferation) were calculated therefrom.

[4] = tested on: MOLM-13 cells; test: Cell proliferation assay (alamarBlue), MOLM-13; assay type: cell-based; conditions: Homo sapiens; MOLM-13 (acute myeloid leukaemia), 96 hours
How it was run: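 Cells in RPMI1640 with 10% FCS, read by alamarBlue fluorescence (ex 530, em 590 nm) after overnight plating and again after 96 h compound exposure at 37° C (1E-5 to 1E-8 M). Baseline-subtracted signal compared with buffer-treated cells to derive IC50.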

Row | IC50 [1] [nM] | IC50 [2] [nM] | IC50 [4] [nM] | SMILES | IC50 [3] [nM]
1 | 491 | 87 | 157 | C[C@@H]1C(=O)N(C)c2ccc(Nc3cccc(C(=O)NCCN4CCN(C)CC4)c3)nc2N1Cc1ccccc1 [Example 74, 3-{[(3R)-4-benzyl-1,3-dimethyl-2-oxo-1,2,3,4-tetrahydropyrido[2,3-b]pyrazin-6-yl]amino}-N-[2-(4-methylpiperazin-1-yl)ethyl]benzamide] | 83
2 | 381 | 118 | 197 | C[C@@H]1C(=O)N(C)c2ccc(Nc3cccc(C(=O)N4CCN(C)CC4)c3)nc2N1Cc1ccccc1 [Example 75] | 125
3 | 1180 | 466 | 410 | C[C@@H]1C(=O)N(C)c2ccc(Nc3cccc(C(=O)N[C@H]4CC[C@H](N5CCN(CC6CC6)CC5)CC4)c3)nc2N1c1ccc(F)cc1 [Example 93] | 539
4 | 1840 | 21 | 396 | C[C@@H]1C(=O)N(C)c2ccc(Nc3cccc(S(=O)(=O)N4CC5(CCC5)C4)c3)nc2N1C1CCNCC1 [Example 122, (3R)-6-{[3-(2-Azaspiro[3.3]hept-2-ylsulphonyl)phenyl]amino}-1,3-dimethyl-4-(piperidin-4-yl)-3,4-dihydropyrido[2,3-b]pyrazin-2(1H)-one] | 712
5 | 2500 | 18 | 140 | C[C@@H]1C(=O)N(C)c2ccc(Nc3cccc(S(=O)(=O)N(C)C)c3)nc2N1C1CCNCC1 [Example 123, 3-{[(3R)-1,3-dimethyl-2-oxo-4-(piperidin-4-yl)-1,2,3,4-tetrahydropyrido[2,3-b]pyrazin-6-yl]amino}-N,N-dimethylbenzene-sulphonamide] | 218
6 | > 20000 | 30 | > 20000 | C[C@@H]1C(=O)N(C)c2ccc(Nc3cccc(S(=O)(=O)NC4CCN(C)CC4)c3)nc2N1C1CCNCC1 [Example 124, 3-{[(3R)-1,3-dimethyl-2-oxo-4-(piperidin-4-yl)-1,2,3,4-tetrahydropyrido[2,3-b]pyrazin-6-yl]amino}-N-(1-methylpiperidin-4-yl)benzenesulphonamide] | > 20000
7 | > 10000 | 37 | 383 | C[C@@H]1C(=O)N(C)c2ccc(Nc3cccc(S(=O)(=O)N4CCN(C)CC4)c3)nc2N1C1CCNCC1 [Example 125, (3R)-1,3-dimethyl-6-({3-[(4-methylpiperazin-1-yl)sulphonyl]phenyl}amino)-4-(piperidin-4-yl)-3,4-dihydropyrido[2,3-b]pyrazin-2(1H)-one] | 2260
8 | 1160 | 38 | 84 | C[C@@H]1C(=O)N(C)c2ccc(Nc3cccc(S(=O)(=O)N4CCN(CC(F)(F)F)CC4)c3)nc2N1C1CCNCC1 [Example 126, (3R)-1,3-dimethyl-4-(piperidin-4-yl)-6-[(3-{[4-(2,2,2-trifluoroethyl)piperazin-1-yl]sulphonyl}phenyl)amino]-3,4-dihydropyrido[2,3-b]pyrazin-2(1H)-one] | 202
9 | > 20000 | 47 | > 10000 | C[C@@H]1C(=O)N(C)c2ccc(Nc3cccc(S(=O)(=O)N[C@H]4CC[C@H](N5CCN(CC6CC6)CC5)CC4)c3)nc2N1C1CCNCC1 [Example 127, N-{trans-4-[4-(cyclopropylmethyl)piperazin-1-yl]cyclohexyl}-3-{[(3R)-1,3-dimethyl-2-oxo-4-(piperidin-4-yl)-1,2,3,4-tetrahydropyrido[2,3-b]pyrazin-6-yl]amino}-benzenesulphonamide] | > 20000
10 | 2160 | 45 | 536 | C[C@@H]1C(=O)N(C)c2ccc(Nc3cccc(S(=O)(=O)N(C)C)c3)cc2N1C1CCNCC1 [Example 129, 3-{[(3R)-1,3-dimethyl-2-oxo-4-(piperidin-4-yl)-1,2,3,4-tetrahydroquinoxalin-6-yl]amino}-N,N-dimethylbenzenesulphon-amide] | 945
11 | > 20000 | 251 | > 10000 | C[C@@H]1C(=O)N(C)c2ccc(Nc3cccc(C(=O)N[C@H]4CC[C@H](N5CCN(CC6CC6)CC5)CC4)c3)nc2N1C1CCNCC1 [Example 131, N-{trans-4-[4-(cyclo-propylmethyl)piperazin-1-yl]cyclohexyl}-3-{[(3R)-1,3-dimethyl-2-oxo-4-(piperidin-4-yl)-1,2,3,4-tetrahydropyrido[2,3-b]pyrazin-6-yl]amino}benzamide] | > 20000
12 | > 20000 | 124 | > 10000 | C[C@@H]1C(=O)N(C)c2ccc(Nc3cccc(C(=O)N(C)C)c3)cc2N1C1CCNCC1 [Example 133, 3-{[(3R)-1,3-dimethyl-2-oxo-4-(piperidin-4-yl)-1,2,3,4-tetrahydroquinoxalin-6-yl]amino}-N,N-dimethylbenzamide] | > 10000

— patent US20160176867A1, “MODIFIED BET-PROTEIN-INHIBITING DIHYDROQUINOXALINONES AND DIHYDROPYRIDOPYRAZINONES” (BAYER PHARMA AKTIENGESELLSCHAFT, priority 2013, published 2016)
